Where “and” joins values, the source holds several entries; their conditions need not be identical. Equal entries are not always repeated.
Assays:
Assay in all cases: cell-based
[1] = target: hNav1.3 (Homo sapiens, UniProt Q9NY46); settings: IonWorks Quattro; read-out: IC50 Nav1.3
[2] = target: hNav1.5 (Homo sapiens, UniProt Q14524); settings: IonWorks Quattro; read-out: IC50 Nav1.5
[3] = target: hNav1.4 (Homo sapiens, UniProt P35499); settings: for IC50: IonWorks Quattro, read-out: IC50 Nav1.4; for Nav1.4/Nav1.7: ratio of IonWorks Quattro IC50 values
[4] = target: hNav1.7 (Homo sapiens, UniProt Q15858); settings: IonWorks Quattro; read-out: IC50 Nav1.7

hNav1.5, sequence (Q14524 whole entry): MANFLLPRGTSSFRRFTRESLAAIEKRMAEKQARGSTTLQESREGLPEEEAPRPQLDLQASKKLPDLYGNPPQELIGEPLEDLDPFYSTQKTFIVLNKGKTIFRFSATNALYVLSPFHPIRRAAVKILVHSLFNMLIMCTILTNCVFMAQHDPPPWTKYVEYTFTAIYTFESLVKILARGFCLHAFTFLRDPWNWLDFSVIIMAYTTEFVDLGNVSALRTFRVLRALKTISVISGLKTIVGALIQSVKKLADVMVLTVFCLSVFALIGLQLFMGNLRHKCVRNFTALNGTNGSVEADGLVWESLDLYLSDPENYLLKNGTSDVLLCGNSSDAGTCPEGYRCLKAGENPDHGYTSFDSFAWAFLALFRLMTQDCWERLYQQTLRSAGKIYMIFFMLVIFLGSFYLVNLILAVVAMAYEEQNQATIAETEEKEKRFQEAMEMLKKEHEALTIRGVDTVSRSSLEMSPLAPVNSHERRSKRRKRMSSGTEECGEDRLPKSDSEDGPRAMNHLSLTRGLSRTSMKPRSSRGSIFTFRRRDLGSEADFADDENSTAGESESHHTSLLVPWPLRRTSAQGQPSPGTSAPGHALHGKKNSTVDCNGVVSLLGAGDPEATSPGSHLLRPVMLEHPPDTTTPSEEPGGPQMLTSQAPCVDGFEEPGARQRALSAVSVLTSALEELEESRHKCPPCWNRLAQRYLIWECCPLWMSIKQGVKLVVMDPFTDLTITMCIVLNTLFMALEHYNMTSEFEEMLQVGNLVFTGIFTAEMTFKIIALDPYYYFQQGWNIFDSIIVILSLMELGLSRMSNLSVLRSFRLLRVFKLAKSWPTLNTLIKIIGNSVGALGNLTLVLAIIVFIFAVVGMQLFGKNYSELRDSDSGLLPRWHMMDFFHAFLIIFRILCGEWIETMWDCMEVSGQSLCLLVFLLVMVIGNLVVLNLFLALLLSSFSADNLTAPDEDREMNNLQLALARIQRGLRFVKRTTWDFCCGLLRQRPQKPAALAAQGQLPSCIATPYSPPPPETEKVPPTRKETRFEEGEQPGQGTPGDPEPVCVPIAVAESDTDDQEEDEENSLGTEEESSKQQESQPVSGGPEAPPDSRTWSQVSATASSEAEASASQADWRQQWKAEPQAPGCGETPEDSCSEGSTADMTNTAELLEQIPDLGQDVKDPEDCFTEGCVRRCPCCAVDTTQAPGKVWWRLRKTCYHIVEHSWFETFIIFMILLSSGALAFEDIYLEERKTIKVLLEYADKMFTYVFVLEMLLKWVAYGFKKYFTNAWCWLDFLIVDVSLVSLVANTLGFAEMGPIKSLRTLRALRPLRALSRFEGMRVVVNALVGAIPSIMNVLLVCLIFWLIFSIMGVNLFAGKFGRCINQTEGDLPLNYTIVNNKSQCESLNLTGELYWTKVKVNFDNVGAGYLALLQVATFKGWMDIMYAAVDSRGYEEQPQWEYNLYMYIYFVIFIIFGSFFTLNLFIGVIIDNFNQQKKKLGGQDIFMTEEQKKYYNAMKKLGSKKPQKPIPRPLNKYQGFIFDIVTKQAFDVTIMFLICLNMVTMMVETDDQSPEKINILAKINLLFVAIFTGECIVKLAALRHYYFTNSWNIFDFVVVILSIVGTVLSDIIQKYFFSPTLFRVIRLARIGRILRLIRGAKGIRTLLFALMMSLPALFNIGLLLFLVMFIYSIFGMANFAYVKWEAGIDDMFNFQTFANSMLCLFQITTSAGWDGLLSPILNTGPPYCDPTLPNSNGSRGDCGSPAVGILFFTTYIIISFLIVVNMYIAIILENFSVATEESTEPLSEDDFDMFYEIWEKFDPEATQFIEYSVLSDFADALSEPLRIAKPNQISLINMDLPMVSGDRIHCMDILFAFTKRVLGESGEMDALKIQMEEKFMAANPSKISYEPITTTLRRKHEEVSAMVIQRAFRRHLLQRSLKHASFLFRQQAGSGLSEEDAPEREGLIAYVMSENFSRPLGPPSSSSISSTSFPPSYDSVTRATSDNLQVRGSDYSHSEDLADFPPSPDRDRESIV
hNav1.3, sequence (Q9NY46 whole entry): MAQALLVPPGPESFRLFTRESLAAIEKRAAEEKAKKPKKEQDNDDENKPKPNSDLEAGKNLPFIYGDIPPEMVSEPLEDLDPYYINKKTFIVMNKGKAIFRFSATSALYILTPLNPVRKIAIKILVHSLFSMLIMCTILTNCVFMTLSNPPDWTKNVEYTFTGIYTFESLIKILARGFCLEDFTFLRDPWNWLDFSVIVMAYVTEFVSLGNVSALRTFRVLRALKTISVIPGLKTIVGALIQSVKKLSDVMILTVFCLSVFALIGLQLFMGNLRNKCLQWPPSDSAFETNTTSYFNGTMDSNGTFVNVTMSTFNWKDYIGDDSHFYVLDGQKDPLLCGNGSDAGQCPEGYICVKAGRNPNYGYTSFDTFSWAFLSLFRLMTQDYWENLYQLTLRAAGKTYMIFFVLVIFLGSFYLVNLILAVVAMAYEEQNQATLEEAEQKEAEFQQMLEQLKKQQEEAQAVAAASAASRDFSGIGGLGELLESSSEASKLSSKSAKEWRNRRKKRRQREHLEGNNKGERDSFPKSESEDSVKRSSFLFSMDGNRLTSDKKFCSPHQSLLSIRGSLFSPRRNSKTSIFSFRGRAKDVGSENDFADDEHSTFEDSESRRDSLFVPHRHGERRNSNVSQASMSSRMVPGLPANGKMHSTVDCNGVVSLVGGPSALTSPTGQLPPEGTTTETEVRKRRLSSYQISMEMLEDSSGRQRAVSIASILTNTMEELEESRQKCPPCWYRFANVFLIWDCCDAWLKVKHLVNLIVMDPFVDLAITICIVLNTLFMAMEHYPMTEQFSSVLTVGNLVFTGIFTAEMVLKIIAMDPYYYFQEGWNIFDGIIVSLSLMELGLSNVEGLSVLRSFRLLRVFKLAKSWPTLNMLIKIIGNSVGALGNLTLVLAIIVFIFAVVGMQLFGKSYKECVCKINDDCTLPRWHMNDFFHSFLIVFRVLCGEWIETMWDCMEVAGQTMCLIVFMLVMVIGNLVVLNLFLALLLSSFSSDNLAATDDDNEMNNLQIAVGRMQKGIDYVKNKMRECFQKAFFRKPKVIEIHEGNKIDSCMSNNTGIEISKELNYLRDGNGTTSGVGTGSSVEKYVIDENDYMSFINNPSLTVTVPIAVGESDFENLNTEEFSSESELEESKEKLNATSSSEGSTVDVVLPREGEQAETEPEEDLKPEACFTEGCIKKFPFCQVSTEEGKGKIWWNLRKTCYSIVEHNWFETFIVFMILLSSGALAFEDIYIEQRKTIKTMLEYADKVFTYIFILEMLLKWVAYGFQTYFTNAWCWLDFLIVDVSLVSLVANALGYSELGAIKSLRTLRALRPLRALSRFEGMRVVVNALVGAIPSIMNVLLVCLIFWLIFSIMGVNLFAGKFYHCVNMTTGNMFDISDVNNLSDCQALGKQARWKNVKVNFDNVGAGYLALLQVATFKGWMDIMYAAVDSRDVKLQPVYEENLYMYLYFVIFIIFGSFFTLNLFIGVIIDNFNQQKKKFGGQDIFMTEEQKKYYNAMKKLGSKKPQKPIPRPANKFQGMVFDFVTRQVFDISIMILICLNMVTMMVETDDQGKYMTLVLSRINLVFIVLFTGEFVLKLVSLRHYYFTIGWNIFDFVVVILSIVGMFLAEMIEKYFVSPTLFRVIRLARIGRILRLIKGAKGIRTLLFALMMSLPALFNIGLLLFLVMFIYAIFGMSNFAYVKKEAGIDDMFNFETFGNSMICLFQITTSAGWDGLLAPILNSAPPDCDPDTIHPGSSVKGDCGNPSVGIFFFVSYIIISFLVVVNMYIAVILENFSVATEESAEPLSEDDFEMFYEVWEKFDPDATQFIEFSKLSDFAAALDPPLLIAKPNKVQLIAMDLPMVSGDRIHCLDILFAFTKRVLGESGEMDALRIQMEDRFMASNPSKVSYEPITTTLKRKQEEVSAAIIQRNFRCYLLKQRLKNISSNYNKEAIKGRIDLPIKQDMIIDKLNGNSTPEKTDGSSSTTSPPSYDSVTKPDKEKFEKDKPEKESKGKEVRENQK

| SMILES | IC50 [1] [µM] | IC50 [2] [µM] | IC50 [3] [µM] | Nav1.4/Nav1.7 [3] | IC50 [4] |
| --- | --- | --- | --- | --- | --- |
| CC[C@H](C)[C@H](NC(=O)[C@@H](NC(=O)[C@H](CCCCN)NC(=O)[C@H](CCCNC(=N)N)NC(=O)[C@@H]1CSSC[C@@H]2NC(=O)[C@H](C)NC(=O)[C@H](CCCNC(=N)N)NC(=O)[C@H](CCCCN)NC(=O)[C@H](CO)NC(=O)[C@H](CC(=O)O)NC(=O)[C@@H]3CSSC[C@H](NC(=O)[C@H](CCC(=O)O)NC(=O)[C@H](CC(C)C)NC(=O)CNC(=O)[C@H](CCC(=O)O)NC(=O)[C@H](CSSC[C@H](NC(=O)[C@@H](N)Cc4cn(CCCOCCOCCOCCOCCOCCOCCOCCOCCOCCOCCN)nn4)C(=O)N[C@@H](CCC(N)=O)C(=O)N[C@@H](CCCCN)C(=O)N[C@@H](Cc4c[nH]c5ccccc45)C(=O)N[C@@H](CCSC)C(=O)N[C@@H](Cc4c[nH]c5ccccc45)C(=O)N[C@@H]([C@@H](C)O)C(=O)N3)NC2=O)C(=O)N[C@@H](CCCCN)C(=O)N[C@@H](CC(C)C)C(=O)N[C@@H](Cc2c[nH]c3ccccc23)C(=O)N1)[C@@H](C)CC)C(N)=O [compound 165] | > 5 | 15.1 | > 5 | 28 | 0.18 µM |
| CC[C@H](C)[C@H](NC(=O)[C@@H](NC(=O)[C@H](CCCCN)NC(=O)[C@H](CCCNC(=N)N)NC(=O)[C@@H]1CSSC[C@@H]2NC(=O)[C@H](C)NC(=O)[C@H](CCCNC(=N)N)NC(=O)[C@H](CCCCN)NC(=O)[C@H](CO)NC(=O)[C@H](CC(=O)O)NC(=O)[C@@H]3CSSC[C@H](NC(=O)[C@H](CCC(=O)O)NC(=O)[C@H](CC(C)C)NC(=O)CNC(=O)[C@H](Cc4cn(CCCOCCOCCOCCOCCOCCOCCOCCOCCOCCOCCN)nn4)NC(=O)[C@H](CSSC[C@H](NC(=O)[C@@H](N)Cc4ccc(O)cc4)C(=O)N[C@@H](CCC(N)=O)C(=O)N[C@@H](CCCCN)C(=O)N[C@@H](Cc4c[nH]c5ccccc45)C(=O)N[C@@H](CCSC)C(=O)N[C@@H](Cc4c[nH]c5ccccc45)C(=O)N[C@@H]([C@@H](C)O)C(=O)N3)NC2=O)C(=O)N[C@@H](CCCCN)C(=O)N[C@@H](CC(C)C)C(=O)N[C@@H](Cc2c[nH]c3ccccc23)C(=O)N1)[C@@H](C)CC)C(N)=O [compound 178] | > 5 | 15.1 | > 5 | 28 | 0.18 µM |
| CC[C@H](C)[C@H](NC(=O)[C@@H](NC(=O)[C@H](CCCCN)NC(=O)[C@H](CCCNC(=N)N)NC(=O)[C@@H]1CSSC[C@@H]2NC(=O)[C@H](C)NC(=O)[C@H](CCCNC(=N)N)NC(=O)[C@H](CCCCN)NC(=O)[C@H](CO)NC(=O)[C@H](CC(=O)O)NC(=O)[C@@H]3CSSC[C@H](NC(=O)[C@H](CCC(=O)O)NC(=O)[C@H](CC(C)C)NC(=O)CNC(=O)[C@H](CCC(=O)O)NC(=O)[C@H](CSSC[C@H](NC(=O)[C@@H](N)Cc4ccc(O)cc4)C(=O)N[C@@H](CCC(N)=O)C(=O)N[C@@H](CCCCN)C(=O)N[C@@H](Cc4c[nH]c5ccccc45)C(=O)N[C@@H](CCSC)C(=O)N[C@@H](Cc4c[nH]c5ccccc45)C(=O)N[C@@H]([C@@H](C)O)C(=O)N3)NC2=O)C(=O)N[C@@H](CCCCN)C(=O)N[C@@H](Cc2cn(CCCOCCOCCOCCOCCOCCOCCOCCOCCOCCOCCN)nn2)C(=O)N[C@@H](Cc2c[nH]c3ccccc23)C(=O)N1)[C@@H](C)CC)C(N)=O [compound 183] | > 5 | 19.2 | > 5 | 1 | ≥ 5 µM |
| CC[C@H](C)[C@H](NC(=O)[C@H](Cc1cn(CCCOCCOCCOCCOCCOCCOCCOCCOCCOCCOCCN)nn1)NC(=O)[C@H](CCCCN)NC(=O)[C@H](CCCNC(=N)N)NC(=O)[C@@H]1CSSC[C@@H]2NC(=O)[C@H](C)NC(=O)[C@H](CCCNC(=N)N)NC(=O)[C@H](CCCCN)NC(=O)[C@H](CO)NC(=O)[C@H](CC(=O)O)NC(=O)[C@@H]3CSSC[C@H](NC(=O)[C@H](CCC(=O)O)NC(=O)[C@H](CC(C)C)NC(=O)CNC(=O)[C@H](CCC(=O)O)NC(=O)[C@H](CSSC[C@H](NC(=O)[C@@H](N)Cc4ccc(O)cc4)C(=O)N[C@@H](CCC(N)=O)C(=O)N[C@@H](CCCCN)C(=O)N[C@@H](Cc4c[nH]c5ccccc45)C(=O)N[C@@H](CCSC)C(=O)N[C@@H](Cc4c[nH]c5ccccc45)C(=O)N[C@@H]([C@@H](C)O)C(=O)N3)NC2=O)C(=O)N[C@@H](CCCCN)C(=O)N[C@@H](CC(C)C)C(=O)N[C@@H](Cc2c[nH]c3ccccc23)C(=O)N1)C(N)=O [compound 187] | > 5 | 15.4 | > 5 | 3 | 1.77 µM |
| CC[C@H](C)[C@H](NC(=O)[C@H](Cc1ccc(O)cc1)NC(=O)[C@H](CCCCN)NC(=O)[C@H](CCCNC(=N)N)NC(=O)[C@@H]1CSSC[C@@H]2NC(=O)[C@H](C)NC(=O)[C@H](CCCNC(=N)N)NC(=O)[C@H](CCCCN)NC(=O)[C@H](CO)NC(=O)[C@H](CC(=O)O)NC(=O)[C@@H]3CSSC[C@H](NC(=O)[C@H](CCC(=O)O)NC(=O)[C@H](CC(C)C)NC(=O)CNC(=O)[C@H](CCC(=O)O)NC(=O)[C@H](CSSC[C@H](NC(=O)[C@@H](N)Cc4ccc(O)cc4)C(=O)N[C@@H](CCC(N)=O)C(=O)N[C@@H](CCCCN)C(=O)N[C@@H](Cc4ccc(O)cc4)C(=O)N[C@@H](CCSC)C(=O)N[C@@H](Cc4c[nH]c5ccccc45)C(=O)N[C@@H]([C@@H](C)O)C(=O)N3)NC2=O)C(=O)N[C@@H](CCCCN)C(=O)N[C@@H](CC(C)C)C(=O)N[C@@H](Cc2c[nH]c3ccccc23)C(=O)N1)C(N)=O [compound 194] | > 5 | > 5 | > 5 |  | 0.91 µM and 2.5 µM |
| CC[C@H](C)[C@H](NC(=O)[C@H](Cc1ccc(O)cc1)NC(=O)[C@H](CCCCN)NC(=O)[C@H](CCCNC(=N)N)NC(=O)[C@@H]1CSSC[C@@H]2NC(=O)[C@H](C)NC(=O)[C@H](CCCNC(=N)N)NC(=O)[C@H](CCCCN)NC(=O)[C@H](CO)NC(=O)[C@H](CC(=O)O)NC(=O)[C@@H]3CSSC[C@H](NC(=O)[C@H](CCC(=O)O)NC(=O)[C@H](CC(C)C)NC(=O)CNC(=O)[C@H](CCC(=O)O)NC(=O)[C@H](CSSC[C@H](NC(=O)[C@@H](N)Cc4ccc(O)cc4)C(=O)N[C@@H](CCC(N)=O)C(=O)N[C@@H](CCCCN)C(=O)N[C@@H](C(C)C)C(=O)N[C@@H](CCSC)C(=O)N[C@@H](Cc4c[nH]c5ccccc45)C(=O)N[C@@H]([C@@H](C)O)C(=O)N3)NC2=O)C(=O)N[C@@H](CCCCN)C(=O)N[C@@H](CC(C)C)C(=O)N[C@@H](Cc2c[nH]c3ccccc23)C(=O)N1)C(N)=O [compound 195] | > 5 | > 5 | > 5 |  | 3.8 µM |
| CC[C@H](C)[C@H](NC(=O)[C@H](Cc1ccc(O)cc1)NC(=O)[C@H](CCCCN)NC(=O)[C@H](CCCNC(=N)N)NC(=O)[C@@H]1CSSC[C@@H]2NC(=O)[C@H](C)NC(=O)[C@H](CCCNC(=N)N)NC(=O)[C@H](CCCCN)NC(=O)[C@H](CO)NC(=O)[C@H](CC(=O)O)NC(=O)[C@@H]3CSSC[C@H](NC(=O)[C@H](CCC(=O)O)NC(=O)[C@H](CC(C)C)NC(=O)CNC(=O)[C@H](CCC(=O)O)NC(=O)[C@H](CSSC[C@H](NC(=O)[C@@H](N)Cc4ccc(O)cc4)C(=O)N[C@@H](CCC(N)=O)C(=O)N[C@@H](CCCCN)C(=O)N[C@@H](CC(C)C)C(=O)N[C@@H](CCSC)C(=O)N[C@@H](Cc4c[nH]c5ccccc45)C(=O)N[C@@H]([C@@H](C)O)C(=O)N3)NC2=O)C(=O)N[C@@H](CCCCN)C(=O)N[C@@H](CC(C)C)C(=O)N[C@@H](Cc2c[nH]c3ccccc23)C(=O)N1)C(N)=O [compound 196] | > 5 | > 5 | > 5 |  | > 5 µM |
| CCC[C@@H]1NC(=O)[C@H](CCCCN)NC(=O)[C@H](CCC(N)=O)NC(=O)[C@@H](NC(=O)[C@@H](N)Cc2ccc(O)cc2)CSSC[C@@H]2NC(=O)[C@@H]3CSSC[C@@H](C(=O)N[C@@H](CCCNC(=N)N)C(=O)N[C@@H](CCCCN)C(=O)N[C@@H](Cc4ccc(O)cc4)C(=O)N[C@H](C(N)=O)[C@@H](C)CC)NC(=O)[C@H](Cc4c[nH]c5ccccc45)NC(=O)[C@H](CC(C)C)NC(=O)[C@H](CCCCN)NC(=O)[C@H](CSSC[C@H](NC(=O)[C@H]([C@@H](C)O)NC(=O)[C@H](Cc4c[nH]c5ccccc45)NC(=O)[C@H](CCSC)NC1=O)C(=O)N[C@@H](CC(=O)O)C(=O)N[C@@H](CO)C(=O)N[C@@H](CCCCN)C(=O)N[C@@H](CCCNC(=N)N)C(=O)N[C@@H](C)C(=O)N3)NC(=O)[C@H](CCC(=O)O)NC(=O)[C@H](CC(C)C)NC(=O)CNC(=O)[C@H](CCC(=O)O)NC2=O [compound 198] | > 5 | > 5 | > 5 |  | 3.3 µM |
| CC[C@H](C)[C@H](NC(=O)[C@H](Cc1ccc(O)cc1)NC(=O)[C@H](CCCCN)NC(=O)[C@H](CCCNC(=N)N)NC(=O)[C@@H]1CSSC[C@@H]2NC(=O)[C@H](C)NC(=O)[C@H](CCCNC(=N)N)NC(=O)[C@H](CCCCN)NC(=O)[C@H](CO)NC(=O)[C@H](CC(=O)O)NC(=O)[C@@H]3CSSC[C@H](NC(=O)[C@H](CCC(=O)O)NC(=O)[C@H](CC(C)C)NC(=O)CNC(=O)[C@H](CCC(=O)O)NC(=O)[C@H](CSSC[C@H](NC(=O)[C@@H](N)Cc4ccc(O)cc4)C(=O)N[C@@H](CCC(N)=O)C(=O)N[C@@H](CCCCN)C(=O)N[C@@H](CCCNC(N)=O)C(=O)N[C@@H](CCSC)C(=O)N[C@@H](Cc4c[nH]c5ccccc45)C(=O)N[C@@H]([C@@H](C)O)C(=O)N3)NC2=O)C(=O)N[C@@H](CCCCN)C(=O)N[C@@H](CC(C)C)C(=O)N[C@@H](Cc2c[nH]c3ccccc23)C(=O)N1)C(N)=O [compound 199] | > 5 | > 5 | > 5 |  | > 5 µM |

Source: patent US9636418B2 (priority 2013, dated 2017)
